Biological target: T1, Papain (Carica papaya) (UniProt P00784)
T1 sequence (whole entry): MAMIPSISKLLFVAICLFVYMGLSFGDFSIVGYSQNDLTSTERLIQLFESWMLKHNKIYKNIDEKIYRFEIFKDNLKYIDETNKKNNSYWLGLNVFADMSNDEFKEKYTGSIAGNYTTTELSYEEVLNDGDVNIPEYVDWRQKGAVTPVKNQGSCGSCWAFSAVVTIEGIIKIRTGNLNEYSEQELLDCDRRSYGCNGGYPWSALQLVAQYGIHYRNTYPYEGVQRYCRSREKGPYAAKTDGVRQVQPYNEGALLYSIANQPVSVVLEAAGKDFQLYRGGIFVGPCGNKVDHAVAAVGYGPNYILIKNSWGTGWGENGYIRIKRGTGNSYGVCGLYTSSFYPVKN
Experiment: The compound was tested for Rate of Inhibition of Papain.

ki/Ki [M⁻¹ s⁻¹]	SMILES
18	CC(=O)N[C@@H](Cc1ccccc1)C(=O)NNC(=O)OCC(C)C
13	COC(=O)NNC(=O)[C@H](Cc1ccccc1)NC(C)=O
> 11000	CC(=O)N[C@@H](Cc1ccccc1)C(=O)NNC(=O)Oc1ccccc1
0.02	CC(=O)N[C@@H](Cc1ccccc1)C(=O)NN(C)C(=O)OCC(C)C
